Experimental data taken from patent US10800772B2 (Gilead Sciences, Inc., priority 2016, dated 2020).
pEC50: −log10 of the molar value. Like-named read-outs stand apart in the source and are kept apart here.

Assays:
[1] = test system: HIV-IIIb (wildtype); experiment: Antiviral assay in MT4 cells, HIV-IIIb wildtype; assay type: cell-based, HIV-1; conditions: read-out: WT EC50
Procedure, shortened: (§1)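 Compounds were titrated as 3-fold serial dilutions at 10 concentrations, in quadruplicate, against 2000 MT4 cells/well that had been infected for 3 h with HIV-IIIb at 0.004 m.o.i. Viruses were wildtype or integrase T174I mutants from breakthrough selection or dose-escalation passaging; mock-infected cells were run in parallel. After 5 days' culture, EC50 was derived as 50% reduction of CellTiter-Glo luminescence, which reflects HIV-1 replication.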

[2] = test system: HIV-IIIb IN T174I DE; experiment: Antiviral assay in MT4 cells, HIV-IIIb IN T174I DE virus (from dose escalation passaging); assay type: cell-based, HIV-1
Procedure, shortened: as §1

[3] = test system: HIV-IIIb IN T174I BT; experiment: Antiviral assay in MT4 cells, HIV-IIIb IN T174I BT virus (from viral breakthrough); assay type: cell-based, HIV-1
Procedure, shortened: as §1

[4] = Hum MS stability (human microsomal stability half-life); conditions: human microsomes
[5] = Human immunodeficiency virus 1, IIIB, MT4, 120 h
[6] = Human immunodeficiency virus 1, IIIB, MT4, 120 h, read-out: T174I DE EC50, MT4 cells, HIV-IIIb IN T174I DE (dose escalation), 5 days, CellTiter-Glo
[7] = Human immunodeficiency virus 1, IIIB, MT4, 120 h, read-out: T174I BT EC50, MT4 cells, HIV-IIIb IN T174I BT (viral breakthrough), 5 days, CellTiter-Glo
[8] = MT4 cells, HIV-IIIb wildtype, 5 days, CellTiter-Glo
[9] = MT4 cells, HIV-IIIb IN T174I DE (dose escalation), 5 days, CellTiter-Glo, read-out: T174I DE EC50
[10] = MT4 cells, HIV-IIIb IN T174I BT (viral breakthrough), 5 days, CellTiter-Glo, read-out: T174I BT EC50

COCCN1CCC(c2nn(C)c3ccc(-c4nc5cc(C)c([C@H](OC(C)(C)C)C(=O)O)c(-c6ccc(Cl)cc6)c5s4)cc23)C1 (single isomer, unassigned) [Compound 69]
pEC50 [1, 5]: 8.30
pEC50 [2, 6]: 5.94
pEC50 [3, 7]: 6.01
half-life [4]: 5.72 h

Cc1cc2nc(-c3ccc4c(c3)c(C3CCN(C5CCOC5)CC3)nn4C)sc2c(-c2ccc(Cl)cc2)c1[C@H](OC(C)(C)C)C(=O)O (stereo in doubt) [Compound 26, (S)-2-(tert-butoxy)-2-(7-(4-chlorophenyl)-5-methyl-2-(1-methyl-3-(1-((S)-tetrahydrofuran-3-yl)piperidin-4-yl)-1H-indazol-5-yl)benzo[d]thiazol-6-yl)acetic Acid]
pEC50 [1, 5]: 8.40
pEC50 [2, 6]: 6.57
pEC50 [3, 7]: 6.89
half-life [4]: 4.68 h

Cc1cc2nc(-c3ccc4c(c3)c(C3CCN(C5CCOC5)CC3)nn4C)sc2c(-c2ccc(Cl)cc2)c1[C@H](OC(C)(C)C)C(=O)O (stereo in doubt) [Compound 27, (S)-2-(tert-butoxy)-2-(7-(4-chlorophenyl)-5-methyl-2-(1-methyl-3-(1-((R)-tetrahydrofuran-3-yl)piperidin-4-yl)-1H-indazol-5-yl)benzo[d]thiazol-6-yl)acetic Acid]
pEC50 [1, 5]: 8.40
pEC50 [2, 6]: 6.61
pEC50 [3, 7]: 6.81
half-life [4]: 4.17 h

Cc1cc2nc(-c3ccc4c(c3)c(C3CCN(C5COC5)CC3)nn4C)sc2c(-c2ccc(Cl)cc2)c1[C@H](OC(C)(C)C)C(=O)O [Compound 1, (S)-2-(tert-butoxy)-2-(7-(4-chlorophenyl)-5-methyl-2-(1-methyl-3-(1-(oxetan-3-yl)piperidin-4-yl)-1H-indazol-5-yl)benzo[d]thiazol-6-yl)acetic Acid]
pEC50 ([1]; Human immunodeficiency virus 1, 120 h, MT4 cells, HIV-IIIb wildtype, 5 days, CellTiter-Glo): 8.30
pEC50 [2, 6]: 6.50
pEC50 [3, 7]: 6.84
half-life [4]: 5.83 h

COC1CN(c2nn(C)c3ccc(-c4nc5cc(C)c([C@H](OC(C)(C)C)C(=O)O)c(-c6ccc(Cl)cc6)c5s4)cc23)C1 [Compound 2, (S)-2-(tert-butoxy)-2-(7-(4-chlorophenyl)-2-(3-(3-methoxyazetidin-1-yl)-1-methyl-1H-indazol-5-yl)-5-methylbenzo[d]thiazol-6-yl)acetic Acid]
pEC50 [1, 5]: 8.15
pEC50 [2, 6]: 5.59
pEC50 [3, 7]: 5.99
half-life [4]: 1.82 h

Cc1cc2nc(-c3ccc4c(c3)c(C3CCN(C(=O)[C@H]5CCCO5)CC3)nn4C)sc2c(-c2ccc(Cl)cc2)c1[C@H](OC(C)(C)C)C(=O)O [Compound 9, (S)-2-(tert-butoxy)-2-(7-(4-chlorophenyl)-5-methyl-2-(1-methyl-3-(1-((R)-tetrahydrofuran-2-carbonyl)piperidin-4-yl)-1H-indazol-5-yl)benzo[d]thiazol-6-yl)acetic Acid]
pEC50 [1, 5]: 8.05
pEC50 [2, 6]: 6.29
pEC50 [3, 7]: 6.63
half-life [4]: 4.17 h

Cc1cc2nc(-c3ccc4c(c3)c(C3CCN(C5CS(=O)(=O)C5)CC3)nn4C)sc2c(-c2ccc(Cl)cc2)c1[C@H](OC(C)(C)C)C(=O)O [Compound 10, (S)-2-(tert-butoxy)-2-(7-(4-chlorophenyl)-2-(3-(1-(1,1-dioxidothietan-3-yl)piperidin-4-yl)-1-methyl-1H-indazol-5-yl)-5-methylbenzo[d]thiazol-6-yl)acetic Acid]
pEC50 [1, 5]: 8.00
pEC50 [2, 6]: 6.52
pEC50 [3, 7]: 6.56
half-life [4]: 3.58 h

Cc1cc2nc(-c3ccc4c(n3)c(N3CCN(C5COC5)CC3)nn4C)sc2c(-c2ccc(Cl)cc2)c1[C@H](OC(C)(C)C)C(=O)O [Compound 15, (S)-2-(tert-butoxy)-2-(7-(4-chlorophenyl)-5-methyl-2-(1-methyl-3-(4-(oxetan-3-yl)piperazin-1-yl)-1H-pyrazolo[4,3-b]pyridin-5-yl)benzo[d]thiazol-6-yl)acetic Acid]
pEC50 [1, 5]: 8.40
pEC50 [2, 6]: 5.51
pEC50 [3, 7]: 6.18
half-life [4]: 2.83 h

Cc1cc2nc(-c3cnc4c(c3)c(C3CCN(C5COC5)CC3)cn4C)sc2c(-c2ccc(Cl)cc2)c1[C@H](OC(C)(C)C)C(=O)O [Compound 17, (S)-2-(tert-butoxy)-2-(7-(4-chlorophenyl)-5-methyl-2-(1-methyl-3-(1-(oxetan-3-yl)piperidin-4-yl)-1H-pyrrolo[2,3-b]pyridin-5-yl)benzo[d]thiazol-6-yl)acetic Acid]
pEC50 [1, 5]: 8.10
pEC50 [2, 6]: 6.10
pEC50 [3, 7]: 6.62
half-life [4]: 4.7 h

COC(=O)N1CC(N2CCC(c3cn(C)c4ncc(-c5nc6cc(C)c([C@H](OC(C)(C)C)C(=O)O)c(-c7ccc(Cl)cc7)c6s5)cc34)CC2)C1 [Compound 203, (S)-2-(tert-butoxy)-2-(7-(4-chloro-phenyl)-2-(3-(1-(1-(methoxycarbonyl)azetidin-3-yl)piperidin-4-yl)-1-methyl-1H-pyrrolo[2,3-b]pyridin-5-yl)-5-methylbenzo[d]thiazol-6-yl) acetic acid]
pEC50 [1, 5]: 7.96
pEC50 [2, 6]: 6.15
pEC50 [3, 7]: 6.67

CC(=O)N1CC(N2CCC(c3cn(C)c4ncc(-c5nc6cc(C)c([C@H](OC(C)(C)C)C(=O)O)c(-c7ccc(Cl)cc7)c6s5)cc34)CC2)C1 [Compound 204, (S)-2-(2-(3-(1-(1-acetylazetidin-3-yl)piperidin-4-yl)-1-methyl-1H-pyrrolo[2,3-b]pyridin-5-yl)-7-(4-chlorophenyl)-5-methylbenzo [d]thiazol-6-yl)-2-(tert-butoxy) acetic acid]
pEC50 [1, 5]: 7.82
pEC50 [2, 6]: 6.20
pEC50 [3, 7]: 6.59

Cc1cc2nc(-c3ccc4c(c3)c(N3CCN5C(=O)COC[C@H]5C3)nn4C)sc2c(-c2ccc(Cl)cc2)c1[C@H](OC(C)(C)C)C(=O)O [Compound 205, (S)-2-(tert-butoxy)-2-(7-(4-chloro-phenyl)-5-methyl-2-(1-methyl-3-((R)-4-oxohexa-hydropyrazino [2,1-c][1,4]oxazin-8(1H)-yl)-1H-indazol-5-yl)benzo[d]thiazol-6-yl)acetic acid]
pEC50 [1, 5]: 8.15
pEC50 [2, 6]: 6.13
pEC50 [3, 7]: 6.34

Cc1cc2nc(-c3ccc4c(c3)c(N3CCN([C@H]5C[C@@H](O)C5)CC3)nn4C)sc2c(-c2ccc(Cl)cc2)c1[C@H](OC(C)(C)C)C(=O)O [Compound 206, (S)-2-(tert-butoxy)-2-(7-(4-chloro-phenyl)-2-(3-(4-((1s,3s)-3-hydroxy-cyclobutyl)piperazin-1-yl)-1-methyl-1H-indazol-5-yl)-5-methylbenzo[d]thiazol-6-yl) acetic acid]
pEC50 [1, 5]: 7.68
pEC50 [2, 6]: 6.27
pEC50 [3, 7]: 6.47

Cc1cc2nc(-c3ccc4c(c3)c(N3CCN(C5(C)COC5)CC3)nn4C)sc2c(-c2ccc(Cl)cc2)c1[C@H](OC(C)(C)C)C(=O)O [Compound 207, (S)-2-(tert-butoxy)-2-(7-(4-chloro-phenyl)-5-methyl-2-(1-methyl-3-(4-(3-methyloxetan-3-yl)piperazin-1-yl)-1H-indazol-5-yl)benzo[d]thiazol-6-yl)acetic acid]
pEC50 [1, 5]: 8.40
pEC50 [2, 6]: 6.16
pEC50 [3, 7]: 6.42

COC(=O)N1CC[C@@H](N2CCC(c3nn(C)c4ccc(-c5nc6cc(C)c([C@H](OC(C)(C)C)C(=O)O)c(-c7ccc(Cl)cc7)c6s5)nc34)CC2)C1 [Compound 208, (S)-2-(tert-butoxy)-2-(7-(4-chloro-phenyl)-2-(3-(1-((R)-1-(methoxy-carbonyl)pyrrolidin-3-yl)piperidin-4-yl)-1-methyl-1H-pyrazolo[4,3-b]pyridin-5-yl)-5-methylbenzo[d]thiazol-6-yl) acetic acid]
pEC50 [1, 5]: 8.70
pEC50 [2, 6]: 6.69
pEC50 [3, 7]: 7.27

(S)-2-(2-(3-(1- ((R)-1-acetyl- pyrrolidin-3-yl) piperidin-4-yl)- 1-methyl-1H- pyrazolo[4,3-b] pyridin-5-yl)-7- (4-chlorophenyl)- 5-methylbenzo[d] thiazol-6-yl)-2- (tert-butoxy) acetic acid [Compound 169]
pEC50 [1, 8]: 8.70
pEC50 [2, 9]: 7.07
pEC50 [3, 10]: 7.44

(S)-2-(tert-butoxy)- 2-(7-(4-chloro- phenyl)-2-(3-(1- ((S)-1-(methoxy- carbonyl) pyrrolidin- 3-yl)piperidin-4- yl)-1-methyl-1H- pyrrolo[2,3-b] pyridin-5-yl)-5- methylbenzo[d] thiazol-6-yl) acetic acid [Compound 202]
pEC50 [1, 8]: 8.15
pEC50 [2, 9]: 6.17
pEC50 [3, 10]: 6.80

(S)-2-(tert-butoxy)- 2-(7-(4-chloro- phenyl)-2-(3-(1-(2- (dimethylamino) ethyl)piperidin-4- yl)-1-methyl-1H- indazol-5-yl)-5- methylbenzo[d] thiazol-6-yl) acetic acid [Compound 130]
pEC50 [1, 8]: 7.92
pEC50 [2, 9]: 6.63
pEC50 [3, 10]: 6.91

(S)-2-(tert-butoxy)- 2-(7-(4-chloro- phenyl)-2-(3-((R)- hexahydropyrazino [2,1-c][1,4]oxazin- 8(1H)-yl)-1-methyl- 1H-indazol-5-yl)- 5-methylbenzo[d] thiazol-6-yl)acetic acid [Compound 135]
pEC50 [1, 8]: 8.00
pEC50 [2, 9]: 5.98
pEC50 [3, 10]: 6.40
